biological target: T1, Organic anion transporter 3 (Homo sapiens, UniProt Q8TCC7); experiment: TP_TRANSPORTER: inhibition of Estrone sulfate in Xenopus laevis oocytes; format: functional, cell-based, Oocyte; conditions: not given
T1 sequence (Q8TCC7 whole entry): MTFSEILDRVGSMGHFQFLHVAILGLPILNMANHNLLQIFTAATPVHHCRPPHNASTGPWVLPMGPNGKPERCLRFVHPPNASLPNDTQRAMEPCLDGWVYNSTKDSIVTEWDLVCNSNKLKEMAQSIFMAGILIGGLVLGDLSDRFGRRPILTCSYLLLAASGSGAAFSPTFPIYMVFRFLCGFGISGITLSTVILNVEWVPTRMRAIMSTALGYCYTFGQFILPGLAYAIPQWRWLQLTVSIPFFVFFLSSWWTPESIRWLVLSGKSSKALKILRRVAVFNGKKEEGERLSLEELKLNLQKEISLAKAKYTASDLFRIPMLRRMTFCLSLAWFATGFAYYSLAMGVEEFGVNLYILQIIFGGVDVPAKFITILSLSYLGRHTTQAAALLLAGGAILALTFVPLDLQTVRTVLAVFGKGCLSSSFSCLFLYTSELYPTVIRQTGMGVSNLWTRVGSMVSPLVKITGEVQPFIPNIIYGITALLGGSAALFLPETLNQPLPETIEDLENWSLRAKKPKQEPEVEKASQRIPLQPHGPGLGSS

Row | Ki [µM] | Structure (SMILES)
1 | 275 | O=c1[nH]c(=O)c2[nH]c(=O)[nH]c2[nH]1 [URIC ACID]

biological target: T1, Organic anion transporter 3; experiment: TP_TRANSPORTER: trans-stimulation in Xenopus laevis oocytes; format: functional, cell-based; conditions: oocyte

Row | Structure (SMILES) | Activity
2 | O=c1[nH]c(=O)c2[nH]c(=O)[nH]c2[nH]1 [URIC ACID] | substrate []
3 | O=C(O)CCC(=O)C(=O)O [ALPHA-KETOGLUTARIC ACID] | substrate []
4 | CN/C(=N/CCSCc1nc[nH]c1C)NC#N [CIMETIDINE] | substrate []

Further lines, results first:

Row | Activity | Structure (SMILES)
5 | substrate [] | Nc1ccc(C(=O)NCC(=O)O)cc1 [AMINOHIPPURIC ACID]
6 | substrate [] | O=C(O)CCCC(=O)O [GLUTARATE]

Reference: ChEMBL document CHEMBL2074489, “Human organic anion transporter 3 (hOAT3) can operate as an exchanger and mediate secretory urate flux” (Cell Physiol Biochem, 2003)
